For 36 compounds, pC results are on record in ChEMBL document CHEMBL1123744, “A quantitative structure-activity relationship analysis of some 4-aminodiphenyl sulfone antibacterial agents using linear free energy and molecular modeling methods” (J Med Chem, 1987).

Structures are written as SMILES.

The test system of this assay is Mycobacterium lufu. As to the kind of experiment: In vitro inhibition of Mycobacterium lufu dihydopterate synthase.
`Nc1ccc(S(=O)(=O)c2ccc(NCC(=O)O)cc2)cc1` gave a pC of 6.06.
On to `CCNc1ccc(S(=O)(=O)c2ccc(N)cc2)cc1O`, for which the pC came to 5.7.
For `Nc1ccc(S(=O)(=O)c2ccc(C(=O)O)cc2)cc1` the value was 5.44; for `Nc1ccc(S(=O)(=O)c2ccc(O)cc2)cc1`, 5.82; for `N#Cc1cc(N)ccc1S(=O)(=O)c1ccc(N)cc1`, 5.65.
The value for `CCCNc1ccc(S(=O)(=O)c2ccc(N)cc2)cc1O` was 5.64.
For `COc1cc(S(=O)(=O)c2ccc(N)cc2)ccc1N` the value was 5.56; for `Cc1cc(N)ccc1S(=O)(=O)c1ccc(N)cc1`, 6.19.
Compound `CCNc1ccc(S(=O)(=O)c2ccc(N)cc2)c(OC)c1` gave a pC of 5.75.
For `CCCNc1ccc(S(=O)(=O)c2ccc(N)cc2)c(O)c1` the value was 5.71.
For `Nc1ccc(S(=O)(=O)c2ccc([N+](=O)[O-])cc2)cc1` the value was 4.51.
Compound `COc1ccc(S(=O)(=O)c2ccc(N)cc2)cc1` registered a pC of 5.12.
Compound `Cc1ccc(S(=O)(=O)c2ccc(N)cc2)cc1` gave a pC of 5.09.
The value for `CN(C)c1ccc(S(=O)(=O)c2ccc(N)cc2)cc1` was 5.75; that for `CC(=O)Nc1ccc(S(=O)(=O)c2ccc(N)cc2)cc1` was 5.15.
The value for `CCNc1ccc(S(=O)(=O)c2ccc(N)cc2)c(O)c1` was 6.14.
For `Nc1ccc(S(=O)(=O)c2ccccc2[N+](=O)[O-])cc1` the value was 5.61; for `COC(=O)c1ccc(S(=O)(=O)c2ccc(N)cc2)cc1`, 4.93; for `Nc1ccc(S(=O)(=O)c2ccc(N)cc2)cc1`, 5.92.
The compound `CCCNc1ccc(S(=O)(=O)c2ccc(N)cc2)cc1OC` returned a pC of 5.4.
`COc1cc(N)ccc1S(=O)(=O)c1ccc(N)cc1` returned a pC of 5.73.
The value for `Nc1ccc(S(=O)(=O)c2ccc(N)cc2N)cc1` was 5.99; that for `Nc1ccc(S(=O)(=O)c2ccccc2N)cc1` was 5.65.
On to `CCNc1ccc(S(=O)(=O)c2ccc(N)cc2)cc1`, for which the pC was 5.56.
`Nc1ccc(S(=O)(=O)c2ccc(Cl)cc2)cc1` displayed a pC of 4.89.
For `Nc1ccc(S(=O)(=O)c2ccccc2)cc1` the value was 4.92; for `CCCCNc1ccc(S(=O)(=O)c2ccc(N)cc2)c(OC)c1`, 5.99.
Compound `Nc1ccc(S(=O)(=O)c2ccc(N)cc2[N+](=O)[O-])cc1` came in with a pC of 5.87.
Consider `Nc1ccc(S(=O)(=O)c2ccc([N+](=O)[O-])cc2N)cc1`, for which the pC came to 4.93.
As for `CNc1ccc(S(=O)(=O)c2ccc(N)cc2)cc1`, the pC was 5.89.
For the compound `COC(=O)CNc1ccc(S(=O)(=O)c2ccc(N)cc2)cc1`, the pC is 5.65.
As for `Nc1ccc(S(=O)(=O)c2ccc(N)c(O)c2)cc1`, the pC worked out at 6.07.
For `NNC(=O)c1ccc(S(=O)(=O)c2ccc(N)cc2)cc1`, the pC worked out at 4.9.
The value for `CCCNc1ccc(S(=O)(=O)c2ccc(N)cc2)c(OC)c1` was 5.92; that for `CCNc1ccc(S(=O)(=O)c2ccc(N)cc2)cc1OC` was 5.49; that for `Nc1ccc(S(=O)(=O)c2ccc(N)cc2Cl)cc1` was 6.32.
